Data: patent US12357665B2, “Pharmaceutical compositions and uses thereof in treating muscle atrophy” (Tzung-Yan, priority 2020, dated 2025)

Columns and labels:
Type in all cases: in vivo, mouse (C57BL/6J)
[1] = test system: muscle tissues of aging mice fed with sucrose; test: Sucrose-induced muscle atrophy in aging mice, topical administration: histology and muscle atrophy-associated molecules (Example 1); conditions: once per day day 17-30, ATG-125 60 mg/kg topical, 4-OHT 1 mg/kg intraperitoneal
Description: (§1) Male C57BL/6J (6 and 18 months) mice were fed standard chow and water ad libitum, and housed under conditions of control temperature (26° C.) and illumination (12-hour light/dark cycle). […]
(§2) Muscle tissues were harvested immediately from the mice after they were sacrificed, followed by flash frozen in liquid nitrogen and stored at −80° C. Proteins were extracted from muscle tissues with distilled water containing protease inhibitors, and each protein concentration was determined by protein assay kits. Protein (50 μg) was analyzed on a 10% sodium dodecyl sulfate polyacrylamide gel electrophoresis (SDS-PAGE), and transferred to a polyvinylidene difluoride (PVDF) membrane. […] The optical densities of the bands were quantified using software. […]

[2] = test system: mTOR/insulin signaling pathway (IGF1R, IRS1, PI3K, AKT, mTOR, S6K, 4EBP1); test: Sucrose-induced aging mice: mTOR/insulin signaling pathway in muscle tissues, Western blot (Example 2); conditions: once per day day 17-30, ATG-125 60 mg/kg topical, 4-OHT 1 mg/kg intraperitoneal, FIGS. 4A and 4B
Description: as §1, §2

[3] = test system: mitochondrial biogenesis mediators (SIRT1, PGC1α, NRF1, TFAM, UCP1, UCP2, UCP3); test: Sucrose-induced aging mice: mitochondrial molecules in muscle tissues, mRNA and protein (Example 3); conditions: once per day day 17-30, ATG-125 60 mg/kg topical, 4-OHT 1 mg/kg intraperitoneal, FIGS. 5 and 6
Description: as §1, §2

[4] = test system: muscle tissues of sucrose and MPTP-induced aging mice; test: Sucrose and MPTP-induced muscle atrophy in aging mice, oral administration: histology, atrogin-1 and klotho mRNA (Example 4); conditions: once per day day 17-30, ATG-125 60 mg/kg oral, selegiline 1 mg/kg intraperitoneal, FIG. 7
Description: as §1
Total RNA was isolated from 0.2 g of muscle tissues using RNA extraction kit. For qRT-PCR (real-time reverse transcription-PCR), equal amounts of RNA were retro-transcribed to cDNA using cDNA reverse transcription kit according to the manufacturer's instruction. atrogin-1, klotho, mitochondrial transcription factor A (TFAM), SIRT1, PGC1α, nuclear respiratory factor 1 (NRF1), UCP1, and UCP2 mRNA expressions were evaluated using the SYBR® Green PCR master mix. Relative expression was calculated using the ΔΔCt method with normalization to constitutive genes. […]

[5] = test system: mitochondrial biogenesis mediators (SIRT1, PGC1α, NRF1, TFAM, UCP1, UCP2); test: Sucrose and MPTP-induced aging mice: mitochondrial molecules mRNA in muscle tissues (Example 5); conditions: once per day day 17-30, ATG-125 60 mg/kg oral, selegiline 1 mg/kg intraperitoneal, FIG. 8
Description: as §1
Total RNA was isolated from 0.2 g of muscle tissues using RNA extraction kit. For qRT-PCR (real-time reverse transcription-PCR), equal amounts of RNA were retro-transcribed to cDNA using cDNA reverse transcription kit according to the manufacturer's instruction. atrogin-1, klotho, mitochondrial transcription factor A (TFAM), SIRT1, PGC1α, nuclear respiratory factor 1 (NRF1), UCP1, and UCP2 mRNA expressions were evaluated using the SYBR® Green PCR master mix. Relative expression was calculated using the ΔΔCt method with normalization to constitutive genes.
Mitochondria play an essential role in energy production, redox homeostasis, and the regulation of cell death pathways. […] Thus, whether ATG-125 solution improves the mitochondrial function in the animal having muscle atrophy was evaluated in this example, and the results were respectively depicted in FIG. 8.

| Compound | adverse effect of sucrose on muscle tissues (protein levels of pAMPK, FOXO3a, MuRF1, lipofuscin; mRNA levels of Atrogin-1 and Klotho) ([1]; FIGS. 1 to 3) | levels of adipocytes and degenerated myofibers in muscles ([1]; H&E, FIG. 1) | phosphorylated levels (activations) of mTOR/insulin signaling molecules (pIGF1R, pIRS1, pPI3K, pAKT, pmTOR, pS6K, p4EBP1) [2] | expression levels of mitochondrial biogenesis mediators (mRNA SIRT1, PGC1α, NRF1, TFAM, UCP1, UCP2; protein SIRT1, PGC1α, UCP1, UCP2, UCP3) in muscle tissues [3] | adverse effect of sucrose and MPTP on muscle tissues (mRNA levels of Atrogin-1 and Klotho) [4] | levels of degenerated myofibers in muscles ([4]; H&E) | expression levels of mitochondrial biogenesis mediators (mRNA SIRT1, PGC1α, NRF1, TFAM, UCP1, UCP2) in muscle tissues [5] |
| --- | --- | --- | --- | --- | --- | --- | --- |
| 4-hydroxytamoxifen [4-OHT] | significantly reversed | decreased | enhanced | increased |  |  |  |
| C#CCN(C)[C@H](C)Cc1ccccc1 [selegiline] |  |  |  |  | significantly reversed | decreased | increased |
